Measured values: PubChem BioAssay (NCI)
Several values for one entry are separate records, joined by “and”; a condition that tells them apart may be missing. Equal entries are not always repeated.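 Exposure lasted 48 hours, with cells grown in 96-well plates and compounds tested at five concentrations. GI50 = concentration required for 50% inhibition of growth. The concentration for full growth arrest is given as TGI.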

How the values were obtained:
Assay in all cases: growth of human tumour cells (NCI), 48 h
UACC-62 melanoma = test system: UACC-62 melanoma
SK-MEL-5 melanoma = test system: SK-MEL-5 melanoma
KM12 colon = test system: KM12 colon
MOLT-4 leukemia = test system: MOLT-4 leukemia
SNB-75 CNS = test system: SNB-75 CNS
COLO 205 colon = test system: COLO 205 colon
HCC-2998 colon = test system: HCC-2998 colon
SF-295 CNS = test system: SF-295 CNS
HT29 colon = test system: HT29 colon
OVCAR-8 ovarian = test system: OVCAR-8 ovarian
SK-OV-3 ovarian = test system: SK-OV-3 ovarian
T-47D breast = test system: T-47D breast
RXF 393 renal = test system: RXF 393 renal
K-562 leukemia = test system: K-562 leukemia
SK-MEL-28 melanoma = test system: SK-MEL-28 melanoma
MCF7 breast = test system: MCF7 breast
NCI-H226 lung = test system: NCI-H226 lung
OVCAR-5 ovarian = test system: OVCAR-5 ovarian
SN12C renal = test system: SN12C renal
SW-620 colon = test system: SW-620 colon
SR leukemia = test system: SR leukemia
MDA-N = test system: MDA-N
DU-145 prostate = test system: DU-145 prostate
MDA-MB-231 breast = test system: MDA-MB-231 breast
EKVX NSCLC = test system: EKVX NSCLC
U251 CNS = test system: U251 CNS
PC-3 prostate = test system: PC-3 prostate
NCI-H522 lung = test system: NCI-H522 lung
RPMI-8226 leukemia = test system: RPMI-8226 leukemia
NCI/ADR-RES ovarian = test system: NCI/ADR-RES ovarian
BT-549 breast = test system: BT-549 breast
OVCAR-4 ovarian = test system: OVCAR-4 ovarian
MDA-MB-435 = test system: MDA-MB-435
IGROV1 ovarian = test system: IGROV1 ovarian
SF-268 CNS = test system: SF-268 CNS
HS 578T breast = test system: HS 578T breast
ACHN renal = test system: ACHN renal
NCI-H23 lung = test system: NCI-H23 lung
786-0 renal = test system: 786-0 renal
MALME-3M melanoma = test system: MALME-3M melanoma
SNB-19 CNS = test system: SNB-19 CNS
HL-60(TB) leukemia = test system: HL-60(TB) leukemia
HCT-116 colon = test system: HCT-116 colon
M14 melanoma = test system: M14 melanoma
UACC-257 melanoma = test system: UACC-257 melanoma
OVCAR-3 ovarian = test system: OVCAR-3 ovarian
CCRF-CEM leukemia = test system: CCRF-CEM leukemia
SK-MEL-2 melanoma = test system: SK-MEL-2 melanoma
NCI-H460 lung = test system: NCI-H460 lung
HCT-15 colon = test system: HCT-15 colon
TK-10 renal = test system: TK-10 renal
SF-539 CNS = test system: SF-539 CNS
A549 NSCLC = test system: A549 NSCLC
UO-31 renal = test system: UO-31 renal
HOP-62 NSCLC = test system: HOP-62 NSCLC
CAKI-1 renal = test system: CAKI-1 renal
LOX IMVI melanoma = test system: LOX IMVI melanoma
HOP-92 NSCLC = test system: HOP-92 NSCLC
A498 renal = test system: A498 renal

NC(N)=NS(=O)(=O)c1ccc(NNC(=O)c2cccc3c(=O)c4ccccc4[nH]c23)cc1
TGI (UACC-62 melanoma): 88.9 µM
TGI (SK-MEL-5 melanoma): 36.1 µM
TGI (KM12 colon): 57 µM
TGI (MOLT-4 leukemia): 80.9 µM
TGI (SNB-75 CNS): > 100 µM
TGI (COLO 205 colon): 54.7 µM
TGI (HCC-2998 colon): 38.3 µM
TGI (SF-295 CNS): > 100 µM
TGI (HT29 colon): 41.8 µM
TGI (OVCAR-8 ovarian): 59.4 µM
TGI (SK-OV-3 ovarian): 89.2 µM
TGI (T-47D breast): 59.2 µM
TGI (RXF 393 renal): 77.2 µM
TGI (K-562 leukemia): 53 µM
TGI (SK-MEL-28 melanoma): 65.9 µM
TGI (MCF7 breast): 34.3 µM
TGI (NCI-H226 lung): 67.2 µM
TGI (OVCAR-5 ovarian): > 100 µM
TGI (SN12C renal): > 100 µM
TGI (SW-620 colon): > 100 µM
TGI (SR leukemia): > 100 µM
TGI (MDA-N): 60.9 µM
TGI (DU-145 prostate): > 100 µM
TGI (MDA-MB-231 breast): 95.2 µM
TGI (EKVX NSCLC): 62.2 µM
TGI (U251 CNS): > 100 µM
TGI (PC-3 prostate): 89.7 µM
TGI (NCI-H522 lung): 46.1 µM
TGI (RPMI-8226 leukemia): > 100 µM
TGI (NCI/ADR-RES ovarian): > 100 µM
TGI (BT-549 breast): 73.6 µM
TGI (OVCAR-4 ovarian): 83.5 µM
TGI (MDA-MB-435): 57.5 µM
TGI (IGROV1 ovarian): > 100 µM
TGI (SF-268 CNS): > 100 µM
TGI (HS 578T breast): > 100 µM
TGI (ACHN renal): 61.4 µM
TGI (NCI-H23 lung): 87 µM
TGI (786-0 renal): > 100 µM
TGI (MALME-3M melanoma): 35.4 µM
TGI (SNB-19 CNS): > 100 µM
TGI (HL-60(TB) leukemia): 62.1 µM
TGI (HCT-116 colon): 59.5 µM
TGI (M14 melanoma): 34.9 µM
TGI (UACC-257 melanoma): 74.8 µM
TGI (OVCAR-3 ovarian): 57.5 µM
TGI (CCRF-CEM leukemia): > 100 µM
TGI (SK-MEL-2 melanoma): 63.7 µM
TGI (NCI-H460 lung): 49.1 µM
TGI (HCT-15 colon): 50.5 µM
TGI (TK-10 renal): 94 µM
TGI (SF-539 CNS): 58.7 µM
TGI (A549 NSCLC): > 100 µM
TGI (UO-31 renal): 50.4 µM
TGI (HOP-62 NSCLC): 73.5 µM
TGI (CAKI-1 renal): 94.6 µM
TGI (LOX IMVI melanoma): 47.7 µM
TGI (HOP-92 NSCLC): 79.6 µM

CCc1cc2c(c3c1CCCC3)CC1(Cc3ccc(C(=O)OC)cc3C1)C2 (stereo not given)
TGI (UACC-62 melanoma): > 100 µM
TGI (SK-MEL-5 melanoma): > 100 µM
TGI (KM12 colon): > 100 µM
TGI (MOLT-4 leukemia): > 100 µM
TGI (SNB-75 CNS): > 100 µM
TGI (COLO 205 colon): > 100 µM
TGI (HCC-2998 colon): > 100 µM
TGI (SF-295 CNS): > 100 µM
TGI (HT29 colon): > 100 µM
TGI (OVCAR-8 ovarian): > 100 µM
TGI (SK-OV-3 ovarian): > 100 µM
TGI (T-47D breast): > 100 µM
TGI (RXF 393 renal): > 100 µM
TGI (K-562 leukemia): > 100 µM
TGI (SK-MEL-28 melanoma): > 100 µM
TGI (MCF7 breast): > 100 µM
TGI (NCI-H226 lung): > 100 µM
TGI (OVCAR-5 ovarian): > 100 µM
TGI (SN12C renal): > 100 µM
TGI (SW-620 colon): > 100 µM
TGI (SR leukemia): 85.1 µM
TGI (MDA-N): > 100 µM
TGI (DU-145 prostate): > 100 µM
TGI (MDA-MB-231 breast): > 100 µM
TGI (EKVX NSCLC): > 100 µM
TGI (U251 CNS): > 100 µM
TGI (PC-3 prostate): > 100 µM
TGI (NCI-H522 lung): > 100 µM
TGI (RPMI-8226 leukemia): > 100 µM
TGI (NCI/ADR-RES ovarian): > 100 µM
TGI (BT-549 breast): > 100 µM
TGI (OVCAR-4 ovarian): > 100 µM
TGI (MDA-MB-435): > 100 µM
TGI (IGROV1 ovarian): > 100 µM
TGI (SF-268 CNS): > 100 µM
TGI (HS 578T breast): > 100 µM
TGI (ACHN renal): > 100 µM
TGI (NCI-H23 lung): > 100 µM
TGI (786-0 renal): > 100 µM
TGI (MALME-3M melanoma): > 100 µM
TGI (SNB-19 CNS): > 100 µM
TGI (HL-60(TB) leukemia): 51.6 µM
TGI (HCT-116 colon): > 100 µM
TGI (M14 melanoma): > 100 µM
TGI (UACC-257 melanoma): > 100 µM
TGI (OVCAR-3 ovarian): > 100 µM
TGI (CCRF-CEM leukemia): 56 µM
TGI (SK-MEL-2 melanoma): > 100 µM
TGI (NCI-H460 lung): > 100 µM
TGI (HCT-15 colon): > 100 µM
TGI (TK-10 renal): > 100 µM
TGI (SF-539 CNS): > 100 µM
TGI (A549 NSCLC): > 100 µM
TGI (UO-31 renal): > 100 µM
TGI (HOP-62 NSCLC): > 100 µM
TGI (LOX IMVI melanoma): > 100 µM
TGI (HOP-92 NSCLC): > 100 µM

CC(=O)OCC1OC(n2c(N)c(C#N)c(C)c(C#N)c2=S)C(OC(C)=O)C(OC(C)=O)C1OC(C)=O (stereo not given)
TGI (UACC-62 melanoma): > 100 µM
TGI (SK-MEL-5 melanoma): > 100 µM
TGI (KM12 colon): > 100 µM
TGI (MOLT-4 leukemia): > 100 µM
TGI (SNB-75 CNS): > 100 µM
TGI (COLO 205 colon): > 100 µM
TGI (HCC-2998 colon): > 100 µM
TGI (SF-295 CNS): > 100 µM
TGI (A498 renal): > 100 µM
TGI (HT29 colon): > 100 µM
TGI (OVCAR-8 ovarian): > 100 µM
TGI (SK-OV-3 ovarian): > 100 µM
TGI (T-47D breast): > 100 µM
TGI (RXF 393 renal): > 100 µM
TGI (SK-MEL-28 melanoma): > 100 µM
TGI (MCF7 breast): > 100 µM
TGI (NCI-H226 lung): > 100 µM
TGI (OVCAR-5 ovarian): > 100 µM
TGI (SN12C renal): > 100 µM
TGI (SW-620 colon): > 100 µM
GI50 (SR leukemia): 39.5 µM and > 100 µM
TGI (SR leukemia): > 100 µM
TGI (MDA-N): > 100 µM
TGI (DU-145 prostate): > 100 µM
GI50 (MDA-MB-231 breast): 40 µM and > 100 µM
TGI (MDA-MB-231 breast): > 100 µM
TGI (EKVX NSCLC): > 100 µM
TGI (U251 CNS): > 100 µM
TGI (PC-3 prostate): > 100 µM
TGI (NCI-H522 lung): > 100 µM
TGI (RPMI-8226 leukemia): > 100 µM
TGI (NCI/ADR-RES ovarian): > 100 µM
TGI (BT-549 breast): > 100 µM
TGI (OVCAR-4 ovarian): > 100 µM
TGI (MDA-MB-435): > 100 µM
TGI (IGROV1 ovarian): > 100 µM
TGI (SF-268 CNS): > 100 µM
TGI (HS 578T breast): > 100 µM
TGI (ACHN renal): > 100 µM
TGI (NCI-H23 lung): > 100 µM
TGI (786-0 renal): > 100 µM
TGI (MALME-3M melanoma): > 100 µM
TGI (SNB-19 CNS): > 100 µM
TGI (HCT-116 colon): > 100 µM
TGI (M14 melanoma): > 100 µM
TGI (UACC-257 melanoma): > 100 µM
TGI (OVCAR-3 ovarian): > 100 µM
TGI (CCRF-CEM leukemia): > 100 µM
TGI (SK-MEL-2 melanoma): > 100 µM
TGI (NCI-H460 lung): > 100 µM
TGI (HCT-15 colon): > 100 µM
TGI (TK-10 renal): > 100 µM
TGI (SF-539 CNS): > 100 µM
TGI (A549 NSCLC): > 100 µM
TGI (UO-31 renal): > 100 µM
TGI (HOP-62 NSCLC): > 100 µM
TGI (CAKI-1 renal): > 100 µM
TGI (LOX IMVI melanoma): > 100 µM
GI50 (HOP-92 NSCLC): 43.8 µM and > 100 µM
TGI (HOP-92 NSCLC): > 100 µM
